Results: ChEMBL document CHEMBL4334427 (Medchemcomm, 2019)

Assays:
[1] = target: T1, 4-hydroxy-tetrahydrodipicolinate synthase (Escherichia coli K-12, UniProt P0A6L2); assay: Reversible inhibition of Escherichia coli dihydrodipicolinate synthase using pyruvate as substrate
T1 sequence (P0A6L2 whole entry): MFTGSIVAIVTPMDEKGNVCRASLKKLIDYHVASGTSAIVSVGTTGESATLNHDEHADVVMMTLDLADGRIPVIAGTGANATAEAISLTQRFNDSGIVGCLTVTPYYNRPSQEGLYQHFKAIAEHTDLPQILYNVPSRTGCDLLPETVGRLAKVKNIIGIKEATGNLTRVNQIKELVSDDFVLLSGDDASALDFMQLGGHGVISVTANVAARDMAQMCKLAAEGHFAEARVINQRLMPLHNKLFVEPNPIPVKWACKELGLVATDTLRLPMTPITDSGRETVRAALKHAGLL

[2] = target: T1, 4-hydroxy-tetrahydrodipicolinate synthase; assay: Reversible inhibition of Escherichia coli dihydrodipicolinate synthase using ASA as substrate
[3] = target: 4-hydroxy-tetrahydrodipicolinate synthase (Mycobacterium tuberculosis) (UniProt P9WP25); assay: Inhibition of recombinant N-terminal His-6 tagged Mycobacterium tuberculosis dihydrodipicolinate synthase using (S)-ASA as substrate preincubated for 5 mins followed by substrate addition measured over 10 mins by spectrophotometric analysis relative to control
Sequence of 4-hydroxy-tetrahydrodipicolinate synthase (Mycobacterium tuberculosis) (P9WP25 whole entry): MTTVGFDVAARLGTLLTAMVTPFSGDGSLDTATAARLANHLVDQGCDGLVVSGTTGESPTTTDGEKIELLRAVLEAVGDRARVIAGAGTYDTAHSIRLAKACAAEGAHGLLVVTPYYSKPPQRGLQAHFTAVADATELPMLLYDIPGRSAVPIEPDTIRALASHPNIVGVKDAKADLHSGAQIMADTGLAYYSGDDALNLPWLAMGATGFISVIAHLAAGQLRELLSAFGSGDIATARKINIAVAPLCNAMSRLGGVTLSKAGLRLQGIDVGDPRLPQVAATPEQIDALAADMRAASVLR

[4] = target: T1, 4-hydroxy-tetrahydrodipicolinate synthase; assay: Inhibition of Escherichia coli dihydrodipicolinate synthase assessed as inhibitory dissociation constant using ASA as substrate
[5] = target: T2, 4-hydroxy-tetrahydrodipicolinate synthase (Escherichia coli K-12) (UniProt P0A6L2); assay: Inhibition of Escherichia coli dihydrodipicolinate synthase at 1 mM relative to control
T2 sequence (whole entry): T1 sequence (P0A6L2 whole entry)

[6] = target: T2, 4-hydroxy-tetrahydrodipicolinate synthase (Escherichia coli K-12); assay: Competitive inhibition of Escherichia coli dihydrodipicolinate synthase using DL-ASA as substrate
[7] = Inhibition of Campylobacter jejuni dihydrodipicolinate synthase
[8] = target: T1, 4-hydroxy-tetrahydrodipicolinate synthase; assay: (§1) Inhibition of Escherichia coli dihydrodipicolinate synthase
[9] = target: T2, 4-hydroxy-tetrahydrodipicolinate synthase (Escherichia coli K-12); assay: Competitive inhibition of Escherichia coli dihydrodipicolinate synthase using pyruvate as substrate
[10] = Reversible competitive inhibition of Bacillus subtilis PCI-219 dihydrodipicolinate synthase using DL-ASA as substrate after 10 mins by double reciprocal plot analysis
[11] = Reversible competitive inhibition of Bacillus subtilis PCI-219 dihydrodipicolinate synthase using pyruvate as substrate after 10 mins by double reciprocal plot analysis
[12] = target: 4-hydroxy-tetrahydrodipicolinate synthase (Mycobacterium tuberculosis, UniProt P9WP25); assay: Reversible inhibition of recombinant N-terminal His-6 tagged Mycobacterium tuberculosis dihydrodipicolinate synthase using (S)-ASA as substrate preincubated for 5 mins followed by substrate addition measured over 10 mins by spectrophotometric analysis
Sequence of 4-hydroxy-tetrahydrodipicolinate synthase (Mycobacterium tuberculosis, UniProt P9WP25) (P9WP25 whole entry): as above

[13] = target: T2, 4-hydroxy-tetrahydrodipicolinate synthase (Escherichia coli K-12); assay: Uncompetitive inhibition of Escherichia coli dihydrodipicolinate synthase using DL-ASA as substrate
[14] = target: T2, 4-hydroxy-tetrahydrodipicolinate synthase (Escherichia coli K-12); assay: Inhibition of Escherichia coli dihydrodipicolinate synthase at 4.6 mM relative to control
[15] = target: T2, 4-hydroxy-tetrahydrodipicolinate synthase (Escherichia coli K-12); assay: Uncompetitive inhibition of Escherichia coli dihydrodipicolinate synthase using pyruvate as substrate
[16] = target: T2, 4-hydroxy-tetrahydrodipicolinate synthase (Escherichia coli K-12); assay: as §1
[17] = target: T2, 4-hydroxy-tetrahydrodipicolinate synthase (Escherichia coli K-12); assay: Competitive inhibition of Escherichia coli dihydrodipicolinate synthase using ASA as substrate
[18] = target: T2, 4-hydroxy-tetrahydrodipicolinate synthase (Escherichia coli K-12); assay: Inhibition of Escherichia coli dihydrodipicolinate synthase at 1.2 mM relative to control
[19] = target: T1, 4-hydroxy-tetrahydrodipicolinate synthase; assay: Reversible competitive inhibition of Escherichia coli dihydrodipicolinate synthase
[20] = Reversible inhibition of Campylobacter jejuni dihydrodipicolinate synthase

## N[C@H]1CCOC1=O [HOMOSERINE LACTONE]
[1]
  Ki: 8000 to 15000 µM
[2]
  Ki: 12000 to 22000 µM

## O=C(O)CCCCC(O)C(=O)O (stereo unspecified)
[3]
  inhibition: 74%

## N[C@@H](CCC(=O)O)C(=O)O [GLUTAMIC ACID]
[4]
  Ki: 9000 to 24000 µM

## NCCCC[C@H](N)C(=O)O [LYSINE]
[5]
  inhibition: 50%
[6]
  Kis: 0.2 mM
[7]; read-out: IC50(app)
  IC50: 65 µM
[8]
  IC50: 180 µM

## O=C(O)c1cccc(C(=O)O)[n+]1[O-]
[8]
  IC50: 200 µM

## O=NN1CCC[C@H]1C(=O)O
[8]
  IC50: 7500 µM

## COC(=O)c1cccc(C(=O)OC)n1
[8]
  IC50: 700 µM

## O=C(O)C(=O)CF
[6]
  Kis: 2 mM
[9]
  Kis: 0.22 mM

## O=C(O)CCCCC(=O)C(=O)O
[10]
  Ki: 220 µM
[11]
  Ki: 160 µM
[12]
  Ki: 33 µM

## O=CC(=O)O
[9]
  Kis: 0.016 mM
[13]
  Kii: 0.028 mM

## CCC(=O)C(=O)O
[9]
  Kis: 0.83 mM
[13]
  Kis: 1.3 mM

## CCCC(=O)C(=O)O
[9]
  Kis: 0.7 mM
[13]
  Kii: 1.6 mM

## NCCSC[C@H](N)C(=O)O
[14]
  inhibition: 50%
[6]
  Kis: 2.4 mM
[13]
  Kii: 4.7 mM
[15]
  Kii: 1.9 mM

## CC(=O)C(=O)O
[16]
  Kic: 54 µM
  Kiuc: 12 µM

## N#Cc1cccc(C#N)n1
[8]
  IC50: 300 µM

## O=CCCC(=O)O
[17]
  Kis: 44 µM

## c1cc(-c2nnn[nH]2)nc(-c2nnn[nH]2)c1
[8]
  IC50: 250 µM

## O=C(O)c1cccc(C(=O)O)n1 [DIPICOLINIC ACID]
[18]
  inhibition: 50%
[19]
  IC50: 400 µM
[8]
  Ki: 11000 µM

## NCCCC[C@@](N)(CC[C@](N)(CCCCN)C(=O)O)C(=O)O
[7]; read-out: IC50
  IC50: 0.3 µM
[20]
  Ki: 0.14 µM

## O=NN1CCCCC1C(=O)O (racemic)
[8]
  IC50: 3500 µM

## O=C(O)C1=CCCC(C(=O)O)C1 (stereo unspecified)
[8]
  IC50: 15000 µM

## N[C@@H](CC=O)C(=O)O
[16]
  Kic: 31 µM
  Kiuc: 26 µM

## COC(=N)c1cccc(C(=N)OC)n1
[8]
  IC50: 200 µM

## O=C(O)C(=O)CBr [BROMOPYRUVATE]
[1]
  Ki: 160 µM

## NC1CCCC1=O (stereo unspecified)
[4]
  Ki: 12000 to 24000 µM

## O=C(O)c1cccc(C(=O)O)c1 [ISOPHTHALIC ACID]
[8]
  Ki: 5400 to 5600 µM

## N[C@@H](CC(=O)O)C(=O)O [ASPARTIC ACID]
[2]
  Ki: 90 to 140 µM
[4]
  Ki: 21000 to 39000 µM
